Reference: publication PMC10611578, “Aβ1-6A2V(D) peptide, effective on Aβ aggregation, inhibits tau misfolding and protects the brain after traumatic brain injury” (Molecular Psychiatry, 2023)
One block for each molecule: values may come before it. Square brackets hold non-standard residues; d marks the D form. Peptide text beside a SMILES is read from it.

Columns and labels:
[1] = system: C. elegans; settings: in vivo; cited from earlier work
[2] = ref [16]; cited from earlier work
[3] = biological target: T1, BACE (Homo sapiens, UniProt P56817); assay: BACE1 Inhibitor Screening Kit in vitro; format: biochemical; settings: BACE1 Inhibitor Screening Kit ab283408, 60 min at 37 °C, fluorescence Ex/Em 345/500 nm; read-out: IC50 for inhibition of BACE activity in vitro
T1 construct: purchased Abcam ab283408
T1 sequence (P56817 46-501, species assumed): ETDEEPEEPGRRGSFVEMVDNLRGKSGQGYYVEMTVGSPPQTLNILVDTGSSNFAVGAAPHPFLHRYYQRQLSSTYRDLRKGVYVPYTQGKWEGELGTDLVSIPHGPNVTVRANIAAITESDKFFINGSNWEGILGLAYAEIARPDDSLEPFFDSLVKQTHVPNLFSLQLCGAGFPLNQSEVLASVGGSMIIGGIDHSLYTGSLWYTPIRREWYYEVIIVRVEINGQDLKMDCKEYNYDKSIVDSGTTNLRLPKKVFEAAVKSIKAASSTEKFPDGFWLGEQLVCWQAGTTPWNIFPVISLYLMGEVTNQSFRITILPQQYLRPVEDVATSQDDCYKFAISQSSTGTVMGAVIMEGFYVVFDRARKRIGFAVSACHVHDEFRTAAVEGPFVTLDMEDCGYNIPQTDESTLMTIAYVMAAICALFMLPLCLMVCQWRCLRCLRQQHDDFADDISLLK
Procedure: The ability of Aβ1-6A2V(D) to inhibit BACE activity was measured in vitro as described in the BACE1 Inhibitor Screening Kit ab283408 (Abcam, Cambridge, UK). Increasing concentrations of Aβ1-6A2V(D) were employed. Fluorescence was read for 60 min at 37°C at Ex/Em= 345/500 nm using a spectrophotometer (Infinite M200, Tecan, Männedorf, Switzerland). BACE activity was measured in the ipsilateral cortex of 3xTg-AD TBI mice treated with or without the peptide using the β-Secretase Activity Fluorometric Assay Kit MAK237 (Sigma Aldrich, St. Louis, USA). The protein concentration of the samples was analyzed using the BCA assay, as previously described. The samples were diluted to obtain a final concentration of 25 µg proteins/50 µL and then processed according to the kit instructions. Fluorescence was read at Ex/Em = 355/495 nm.
Supplementary Figure 7. Effect of Aβ1-6A2V(D) on the BACE activity. (A) Dose-dependent inhibitory effect of Aβ1-6A2V(D) on BACE activity determined in vitro. (B) BACE activity determined in the brain homogenates of 3xTg-AD TBI mice (N = 3) treated (TBI Aβ1-6A2V(D)) or not (TBI vehicle) with 50 mg/kg b.w. Aβ1-6A2V(D) and sacrificed 24 h after the last administration. Data are mean ± SD, one-way ANOVA, and Bonferroni’s post hoc test.

[4] = MALDI-TOF imaging brain biodistribution after intranasal administration, TBI mice; format: in vivo, mouse (3xTg-AD
Procedure: The Aβ1-6A2V(D) was administered to 3xTg-AD and 24-month-old WT TBI underwent mice by repeated intranasal administration as described in [39]. In brief, mice were acclimatized for 2 weeks before the surgery and the treatment. Aβ1-6A2V(D) was administered to mice at 50 mg/kg body weight (b.w.) (about 5 µL/nostril/mouse, 10 µL total/each treatment session/mouse) starting at 10 min post-TBI and every 48 h up to 6 days post-injury, using a 20 µL pipette and gel loading pipette tip. At each treatment session, the mice were held in place for 30 seconds after the first 5 µL administration and then left free to move in a cage for 30 seconds before administering the remaining treatment/vehicle. Weight was assessed before each intranasal administration. Neurological functions were monitored longitudinally and plasma levels of neurofilament light (NfL) were assessed at sacrifice as detailed in the Supplementary information (sections ‘Behavioural test’ and ‘Plasmatic neurofilament light’). Seven days after surgery, the mice were sacrificed, the brain was removed, and ipsilateral cortical areas were dissected out, immediately frozen on dry ice, and stored at −80 °C until their use for biochemical and C. elegans studies. At 4 h, 24 h, 48 h, and 72 h after surgery, a subset of mice (n = 3) was sacrificed, and their brains were removed, frozen immediately in liquid nitrogen, and stored at −80 °C until matrix-assisted laser desorption/ionization (MALDI)-imaging analysis. The investigators were blinded to treatment allocation during the assessment of the results.
Fig. 3 Biodistribution of Aβ1-6A2V(D) in brain parenchyma of 3xTg-AD injured mice after intranasal administration. A Mice were subjected to TBI, randomly distributed into two groups, and treated intranasally 10 min post-injury with either a single dose of Aβ1-6A2V(D) (50 mg/kg b.w.) or saline (vehicle). MALDI-imaging analyses were performed 4-h, 24-h, 48-h, and 72-h post-administration. B Representative images of Aβ1-6A2V(D) biodistribution assessed by MALDI-TOF and imaged as a heatmap (red > Aβ1-6A2V(D) concentration > deep purple).
Studies were carried out as described by Catania et al. to confirm that the intranasal administration of Aβ1-6A2V(D) to injured mice allows the efficient distribution of the peptide in the brain tissue. Brains from injured 3xTg-AD mice were used to prepare […] sections (14 μm thickness) at -20°C in a cryostat. Fourteen µm coronal sections of fresh-frozen brains were cut and serially collected from bregma +0.8 mm to -2.7 mm at 700 µm intervals for MALDI analysis and Cresyl violet staining to pair Aβ1-6A2V(D) biodistribution to anatomical structures. […]

[5] = system: tau (P301L mouse brain homogenate); assay: Western blot of total tau level in P301L brain lysate; format: biochemical, human tau with P301L mutation, JNPL3 mice; settings: 50 µM, 2 h at 25 °C, 30 µg protein/100 µL, PBS pH 7.4, DAKO/actin band; mean ± SD, N = 3, p < 0.05
From the text: Male JNPL3 mice expressing 0N4R human tau with the P301L mutation (P301L) were obtained from Taconic Biosciences (New York, USA) (Tau Model 2508). Controls were non-transgenic (Non-tg) male mice with the same mixed C57BL/6, DBA/2, SW genetic background as P301L mice. Triple transgenic mice harboring human PS1(M146 V), APP(SW), and MAPT(P301L) transgenes, referred to as 3xTg-AD, were kindly provided by Dr. Oddo [34]. Male and female C57BL/6 J mice, referred to as wild type (WT), were purchased from Envigo (Italy).
Fig. 2 Effect of Aβ1-6A2V-TAT(D) on the toxicity caused in C. elegans by misfolded tau in P301L and TBI brain homogenates. A Brains from P301L mice were homogenized in 10 mM PBS, pH 7.4, and given to worms alone or in the presence of Aβ1-6A2V-TAT(D). B Worms were administered with brain homogenate (30 µg protein/100 worms/100 µL) in the absence or presence of Aβ1-6A2V-TAT(D) (0-200 µM). […] E Representative western blotting showing the total level of tau and tau quantification expressed as the mean volume of the DAKO band immunoreactivity/actin band. […] The reaction was then stopped, and samples were analyzed by western blot. […]
Lysates from brain homogenates of P301L mice (30 µg protein/100 µL) incubated for 2 h at 25°C with 50 µM Aβ1-6A2V-TAT(D), 50 µM Aβ1-6A2V(D), 50 µM TAT or 10 mM PBS, pH 7.4, were analyzed by immunoblotting using 10% SDS-PAGE gel and Western blotting analysis. […]

[6] = system: Aβ soluble protofibrils; settings: ref [3]; cited from earlier work
From the text: Alzheimer’s disease (AD) is a double proteinopathy characterized by amyloid-β (Aβ) and tau pathology and is the most common dementia in older adults. Despite enormous efforts that have been made in the last few decades to find effective therapy, there are still few weapons available to fight this disease. […] Since the approval of aducanumab, ...

IC50 [3]: 126 nM
Molecule: CC(C)[C@@H](NC(=O)[C@H](N)CC(=O)O)C(=O)N[C@H](CCC(=O)O)C(=O)N[C@H](Cc1ccccc1)C(=O)N[C@H](CCCNC(=N)N)C(=O)N[C@H](Cc1c[nH]cn1)C(=O)O [Aβ1-6A2V(D)] (H-[dD][dV][dE][dF][dR][dH]-OH)
Passage through the worm's membrane [1]: only in the presence of the TAT sequence, Aβ1-6A2V(D) can pass through the worm’s membrane
Brain distribution after single intranasal administration, AD mouse [2]: distributed in the AD mouse brain
Peptide level in brain areas close to the contusion site, 24 h ([4]; intranasal 50 mg/kg b.w., 24 h after administration): high levels of peptide still detectable 24 h after the administration
Presence of peptide in brain regions ([4]; single intranasal dose 50 mg/kg b.w. 10 min post-injury, 4-h and 24-h): present in the cerebral cortex, hippocampus, caudate-putamen, and cerebellum
Peptide level in brain, 72 h ([4]; single intranasal dose 50 mg/kg b.w. 10 min post-injury, 72 h after administration): not detectable
Peptide level in ipsi- and contra-lateral hemispheres, up to 48 h ([4]; single intranasal dose 50 mg/kg b.w. 10 min post-injury, high levels persisting, although low, up to 48 h): high Aβ1-6A2V(D) levels were detected in the ipsi- and contra-lateral hemispheres that persisted, although at low levels, up to 48 h

Molecule: GRKKRRQRRR [TAT, TAT48-56(D) (…), reference compound]
Total tau protein level in P301L brain homogenate [5]: but not TAT alone, significantly reduced the tau protein level

B1: Lecanemab: a humanized monoclonal antibody that binds with high affinity to Aβ soluble protofibrils (antibody, chains of the INN, looked up, V domains shown)
VH: EVQLVESGGGLVQPGGSLRLSCSASGFTFSSFGMHWVRQAPGKGLEWVAYISSGSSTIYYGDTVKGRFTISRDNAKNSLFLQMSSLRAEDTAVYYCAREGGYYYGRSYYTMDYWGQGTTVTVSS
VL: DVVMTQSPLSLPVTPGAPASISCRSSQSIVHSNGNTYLEWYLQKPGQSPKLLIYKVSNRFSGVPDRFSGSGSGTDFTLRISRVEAEDVGIYYCFQGSHVPPTFGPGTKLEIK
Binding affinity to Aβ soluble protofibrils [6]: binds with high affinity to Aβ soluble protofibrils
